Measured values: ChEMBL document CHEMBL1201862, “PubChem BioAssay data set” (2004)
One block for each compound: values may come before it. Activity calls are given as the source filed them.

Assays:
[1] = target: Beta-adrenergic receptor kinase 1 (Homo sapiens, UniProt P25098); assay: blockers of aptamer binding to GRK2 – biochemical, flow cytometry beads, FAM-aptamer, powder set 1, dose response (AID 588720)
Candida albicans [2] = assay: fluconazole-resistant Candida strain growth inhibitors – CaCi-8 strain, dry powder, set 4, dose response (AID 488950); type: functional, organism-based
Candida albicans [3] = assay: antifungal activity against resistant Candida strain – CaCi-8, fluconazole, Alamar Blue, dry powder, dose response (AID 488807); type: functional, organism-based
NIH3T3 = assay: mammalian cell viability counter-check – Alamar Blue, fluconazole, dry powder, cytotoxicity control for antifungal drug resistance project, dose response (AID 488809); type: functional, cell-based; details: Mus musculus
[4] = target: Cyclin-dependent kinase 2 (Homo sapiens, UniProt P24941); assay: inhibition of human CDK2/cyclin A – biochemical, cherry-picked samples, selectivity assay for Dyrk1A inhibitor project, dose response (AID 602127)
[5] = target: Dual specificity protein kinase CLK1 (Homo sapiens, UniProt P49759); assay: inhibition of human CLK1 activity – biochemical, cherry-picked samples, selectivity assay for Dyrk1A inhibitor project, dose response (AID 588811)
BJ [6] = assay: BJ-TERT fibroblast viability loss – cell-based, RAS-independent, luminescence, dose response (AID 1933); type: functional; details: Homo sapiens
BJ [7] = assay: cells; type: functional, cell-based; details: Homo sapiens
BJ [8] = assay: BJ-TERT-LT-ST fibroblast viability loss – cell-based, RAS-independent, luminescence, dose response (AID 1935); type: functional; details: Homo sapiens;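 further: BJ fibroblasts immortalized with TERT plus LT and ST oncogenes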
[9] = DRD fibroblast viability loss – cell-based, non-viral oncogenic, luminescence, dose response (AID 1934); type: functional; details: Homo sapiens
CHO-K1 = assay: (§1) Counterscreen for antagonists of the orexin 1 receptor (OX1R; HCRTR1): Homogeneous time resolved fluorescence (HTRF)-based cell-based dose response assay to identify antagonists of the parental CHO-K1 cell line. [Related pubchem assays (depositor defined):AID434989, AID435008, AID463079, AID485270, AID492963, AID492964, AID492965, AID493232, AID504699, AID504701]; type: functional; details: Cricetulus griseus
[10] = as §1, with “Fluorescence-based” for “Homogeneous time resolved fluorescence (HTRF)-based”, “cell-based high throughput” for “cell-based”, “CHO” for “CHO-K1”; type: functional
[11] = target: T1, Orexin/Hypocretin receptor type 1 (Homo sapiens, UniProt O43613); assay: Homogeneous Time Resolved Fluorescence (HTRF)-based cell-based high throughput dose response assay for antagonists of the orexin 1 receptor (OX1R; HCRTR1). [Related pubchem assays (depositor defined):AID434989, AID435008, AID463079, AID485270, AID492963, AID492964, AID492965, AID493232, AID504717, AID504718]; type: functional
[12] = target: T1, Orexin/Hypocretin receptor type 1; assay: Fluorescence-based cell-based high throughput dose response assay for antagonists of the orexin 1 receptor (OX1R; HCRTR1). [Related pubchem assays (depositor defined):AID434989, AID435008, AID463079, AID485270, AID492963, AID492964, AID492965, AID493232, AID504717, AID504718]; type: functional
Orexin receptor type 2 [13] = target: T2, Orexin receptor type 2 (Homo sapiens, UniProt O43614); assay: Counterscreen assay for antagonists of the orexin 1 receptor (OX1R; HCRTR1): Fluorescence-based cell-based dose response assay for antagonists of the orexin 2 receptor (OX2R; HCRTR2), run by assay provider.; type: functional
Orexin receptor type 2 [14] = target: T2, Orexin receptor type 2; assay: Counterscreen assay for antagonists of the orexin 1 receptor (OX1R; HCRTR1): Homogeneous Time Resolved Fluorescence (HTRF)-based cell-based dose response assay for antagonists of the orexin 2 receptor (OX2R; HCRTR2), run by assay provider.; type: functional
[15] = viability loss in Vero cells – cytotoxicity control for Vif-APOBEC3G degradation inhibitor project, dose response (AID 1117358); type: functional; details: Vero
INS1 [16] = assay: beta-cell survival under cytokine stress – INS-1E, ATP luminescence, dry powder, dose response (AID 488844); type: functional, cell-based; details: Rattus norvegicus
INS1 [17] = assay: INS-1E mitochondrial potential rescue under cytokines – cell-based, JC-1 fluorescence ratio, dry powder, dose response (AID 488931); type: functional; details: Rattus norvegicus
[18] = target: Heat shock protein HSP 90-alpha (Homo sapiens, UniProt P07900); assay: Luminescence-based dose response biochemical high throughput screening assay for inhibitors of the Heat Shock Protein 90 (HSP90). [Related pubchem assays: 1831 (Summary AID.), 1846 (Confirmation screen.), 1789 (Primary screen.)]
[19] = target: Luciferin 4-monooxygenase (Photuris pensylvanica, UniProt Q27757); assay: inhibition of Cell Titer Glo luciferase signal – biochemical, luminescence, cherry-picks, counter-screen for HSF-1 reporter inhibitor project, dose response (AID 588847)
Luciferin 4-monooxygenase, sequence (Q27757 whole entry): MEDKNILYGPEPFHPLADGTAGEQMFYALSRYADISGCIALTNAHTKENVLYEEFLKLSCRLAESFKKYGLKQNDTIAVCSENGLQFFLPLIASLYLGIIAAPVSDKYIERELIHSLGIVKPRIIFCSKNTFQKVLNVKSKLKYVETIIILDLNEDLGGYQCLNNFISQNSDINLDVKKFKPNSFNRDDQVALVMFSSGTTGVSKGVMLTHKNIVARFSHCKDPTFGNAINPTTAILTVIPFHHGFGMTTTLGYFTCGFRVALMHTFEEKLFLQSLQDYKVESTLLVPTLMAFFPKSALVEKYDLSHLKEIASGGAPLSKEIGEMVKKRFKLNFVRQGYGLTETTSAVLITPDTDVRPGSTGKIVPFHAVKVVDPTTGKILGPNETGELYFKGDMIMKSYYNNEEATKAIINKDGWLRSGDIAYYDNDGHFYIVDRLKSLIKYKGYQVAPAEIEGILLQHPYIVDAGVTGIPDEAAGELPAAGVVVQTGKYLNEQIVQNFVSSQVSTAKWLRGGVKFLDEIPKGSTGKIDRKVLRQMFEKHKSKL

T1 sequence (O43613 whole entry): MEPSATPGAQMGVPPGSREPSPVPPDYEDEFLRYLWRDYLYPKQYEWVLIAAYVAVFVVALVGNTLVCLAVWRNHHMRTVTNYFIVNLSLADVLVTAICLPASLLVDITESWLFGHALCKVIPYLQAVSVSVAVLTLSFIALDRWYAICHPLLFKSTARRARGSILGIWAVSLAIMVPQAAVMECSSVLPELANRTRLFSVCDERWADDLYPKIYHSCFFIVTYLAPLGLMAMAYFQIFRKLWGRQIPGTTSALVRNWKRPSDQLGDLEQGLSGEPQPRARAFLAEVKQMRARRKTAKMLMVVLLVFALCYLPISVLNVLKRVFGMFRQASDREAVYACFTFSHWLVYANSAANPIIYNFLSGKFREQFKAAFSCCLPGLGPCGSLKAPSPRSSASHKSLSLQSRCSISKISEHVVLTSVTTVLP
T2 sequence (O43614 whole entry): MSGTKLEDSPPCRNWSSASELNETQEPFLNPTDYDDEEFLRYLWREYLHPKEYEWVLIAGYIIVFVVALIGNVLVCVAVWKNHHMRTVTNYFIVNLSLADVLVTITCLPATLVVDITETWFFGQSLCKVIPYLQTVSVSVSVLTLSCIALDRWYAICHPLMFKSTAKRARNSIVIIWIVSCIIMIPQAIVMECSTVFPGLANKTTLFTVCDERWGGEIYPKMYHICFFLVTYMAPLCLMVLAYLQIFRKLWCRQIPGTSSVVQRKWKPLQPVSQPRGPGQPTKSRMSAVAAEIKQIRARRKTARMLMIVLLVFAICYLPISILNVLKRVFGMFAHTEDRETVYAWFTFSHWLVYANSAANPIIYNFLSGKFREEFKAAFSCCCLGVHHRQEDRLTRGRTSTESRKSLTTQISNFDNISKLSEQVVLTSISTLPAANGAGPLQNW
Dual specificity protein kinase CLK1, sequence (P49759 whole entry): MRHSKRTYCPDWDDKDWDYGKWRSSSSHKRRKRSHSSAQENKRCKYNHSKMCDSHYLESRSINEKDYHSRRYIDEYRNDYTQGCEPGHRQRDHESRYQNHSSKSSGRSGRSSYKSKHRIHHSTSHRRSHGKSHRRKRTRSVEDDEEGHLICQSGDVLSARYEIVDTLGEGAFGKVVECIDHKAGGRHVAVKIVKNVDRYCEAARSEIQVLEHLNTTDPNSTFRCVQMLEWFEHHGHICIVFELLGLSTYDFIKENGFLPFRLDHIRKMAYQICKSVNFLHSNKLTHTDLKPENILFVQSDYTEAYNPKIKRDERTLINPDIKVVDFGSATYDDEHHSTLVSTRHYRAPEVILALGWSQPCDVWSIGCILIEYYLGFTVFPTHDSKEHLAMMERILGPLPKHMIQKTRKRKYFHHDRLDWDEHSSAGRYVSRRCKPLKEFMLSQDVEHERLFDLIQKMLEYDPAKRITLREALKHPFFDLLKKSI
Beta-adrenergic receptor kinase 1, sequence (P25098 whole entry): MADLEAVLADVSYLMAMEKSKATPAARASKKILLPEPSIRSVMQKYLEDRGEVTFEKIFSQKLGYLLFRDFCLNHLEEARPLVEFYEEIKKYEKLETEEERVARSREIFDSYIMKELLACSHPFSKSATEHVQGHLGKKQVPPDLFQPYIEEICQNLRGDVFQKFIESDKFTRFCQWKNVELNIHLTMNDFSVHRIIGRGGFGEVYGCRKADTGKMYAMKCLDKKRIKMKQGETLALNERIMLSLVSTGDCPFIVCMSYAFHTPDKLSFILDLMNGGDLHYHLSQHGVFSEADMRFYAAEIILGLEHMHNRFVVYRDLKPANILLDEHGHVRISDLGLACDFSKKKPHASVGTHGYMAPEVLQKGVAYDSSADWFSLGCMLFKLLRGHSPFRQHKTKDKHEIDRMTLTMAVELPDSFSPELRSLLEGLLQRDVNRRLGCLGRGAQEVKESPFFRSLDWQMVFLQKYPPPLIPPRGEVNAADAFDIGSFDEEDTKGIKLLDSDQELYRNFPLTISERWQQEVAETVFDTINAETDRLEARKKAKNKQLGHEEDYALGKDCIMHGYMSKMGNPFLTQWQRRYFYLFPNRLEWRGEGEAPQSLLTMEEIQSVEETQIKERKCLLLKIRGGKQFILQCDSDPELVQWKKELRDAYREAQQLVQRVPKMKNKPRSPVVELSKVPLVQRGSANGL

- EC50 [1]: 11.4 µM (active)
Structure (SMILES): Cc1ccccc1NC(=O)CCS(=O)(=O)c1ccc(Br)cc1

- AC50 [4]: 14.3 µM (active)
- AC50 [5]: 0.00791 µM (active)
Structure (SMILES): c1cncc(CNc2nccc(-c3ccc4c(c3)OCO4)n2)c1

- IC50 [18]: 8.37 µM (active)
- AC50 [19]: > 52 µM (inactive)
Structure (SMILES): CC(C)Sc1nc(SCC(=O)NCc2ccco2)c2c3c(sc2n1)COC(C)(C)C3

Further lines, the compound ahead of its results:

Structure (SMILES): O=C(C1CC1)N1CCN(c2ccnc3cc(Cl)ccc23)CC1
- AC50 (Candida albicans [2]): 12.4 µM (active)
- AC50 (Candida albicans [3]): 3.25 µM (active)
- AC50 (NIH3T3): 1.7 µM (active)

Structure (SMILES): Cc1nn(-c2ccccc2)c(C)c1/C=N/NC(=O)c1cc(-c2ccccc2)[nH]n1
- EC50 (BJ [6]): 0.308 µM (active)
- EC50 (BJ [7]): 37.5 µM (inconclusive)
- EC50 (BJ [8]): > 150 µM (inconclusive)
- EC50 [9]: 0.659 µM (inconclusive)
- IC50 (CHO-K1): > 66.2 µM (inactive)
- IC50 [10]: > 49.8 µM (inactive)
- IC50 [11]: 1.75 µM (active)
- IC50 [12]: 3.67 µM (active)
- IC50 (Orexin receptor type 2 [13]): 20.6 µM (inactive)
- IC50 (Orexin receptor type 2 [14]): 18.8 µM (inactive)
- CC50 [15]: 8.77 µM (active)

Structure (SMILES): COc1ccc(S(=O)(=O)N(C)C[C@@H]2Oc3c(NC(=O)Nc4cccc5ccccc45)cccc3C(=O)N([C@@H](C)CO)C[C@@H]2C)cc1
- AC50 (INS1 [16]): 37.6 µM (active)
- AC50 (INS1 [17]): 48 µM (active)
